Data as given in publication PMC6629894, “Ruthenium Complexes Containing Heterocyclic Thioamidates Trigger Caspase-Mediated Apoptosis Through MAPK Signaling in Human Hepatocellular Carcinoma Cells” (Frontiers in Oncology, 2019).
Entries after “also recorded” stand apart in the source; their conditions may differ. Like-named read-outs stand apart in the source and are kept apart here.

Tests used:
[1] = test system: WT SV40 MEF (wild-type immortalized mouse embryonic fibroblast); assay: Alamar blue cytotoxicity assay, 72 h; type: cell-based; settings: read-out: IC50 and 95% CI
[2] = test system: HepG2 cells engrafted in C.B-17 SCID mice; assay: Human hepatocellular carcinoma xenograft model; type: in vivo; settings: for mean tumor mass: 21 days (negative control 0.6 ± 0.1 g); for tumor mass inhibition rates: 0.5 and 1 mg/kg/day i.p., 21 days
Method: A total of 64 C.B-17 severe-combined immunodeficiency (SCID) mice (females, 25–30 g) were obtained and maintained at the animal facilities from Gonçalo Moniz Institute-FIOCRUZ (Salvador, Bahia, Brazil). Animals were housed in cages with free access to food and water. All animals were kept under a 12:12-h light-dark cycle (lights on at 6:00 a.m.). The animals were treated according to the ethical principles for animal experimentation of SBCAL (Brazilian Association of Laboratory Animal Science), Brazil. The Animal Ethics Committee of Gonçalo Moniz Institute–FIOCRUZ (Salvador, Bahia, Brazil) approved the experimental protocol (number 06/2015). Animal welfare was monitored throughout the study, and the pain and suffering were minimized.

[3] = test system: calf thymus DNA (ctDNA); assay: DNA interaction assay (ethidium bromide displacement); type: binding
Method: DNA interaction was measured in a cell-free system as previously described ([22]). In this assay, the ability of the complexes to translocate ethidium bromide, a DNA intercalator, from calf thymus DNA (ctDNA, Sigma-Aldrich Co.) was examined. […] […] After a 15 min incubation at room temperature, fluorescence was measured using the excitation and emission wavelengths of 320 and 600 nm, respectively, using a Spectramax Microplate Reader (Molecular Devices).

[4] = test system: B16-F10 (mouse melanoma); assay: Alamar blue cytotoxicity assay, 72 h; type: cell-based
From the text: (§1) The cell lines HepG2 (human hepatocellular carcinoma), HL-60 (human promyelocytic leukemia), K-562 (human chronic myelogenous leukemia), B16-F10 (mouse melanoma), MCF-7 (human breast carcinoma), HCT116 (human colon carcinoma), HSC-3 (human oral squamous cell carcinoma), SCC-4 (human oral squamous cell carcinoma), MRC-5 (human lung fibroblast), WT SV40 MEF (wild-type immortalized mouse embryonic fibroblast), and BAD KO SV40 MEF (BAD gene knockout immortalized mouse embryonic fibroblasts) were obtained from the American Type Culture Collection (ATCC, Manassas, VA, USA). Cells were cultured in RPMI 1640 medium (Gibco-BRL, Gaithersburg, MD, USA) with 10% fetal bovine serum (Life, Carlsbad, CA, USA), 2 mM L-glutamine (Vetec Química Fina, Duque de Caxias, RJ, Brazil) and 50 μg/mL gentamycin (Life). For all experiments, adherent cells were collected by treatment with 0.25% trypsin-EDTA solution (Gibco-BRL). All cell lines were cultured in flasks at 37°C in 5% CO2 and were subcultured every 3–4 days to maintain exponential growth. All cell lines were tested for mycoplasma using a mycoplasma staining kit (Sigma-Aldrich Co.) to validate that the cells that were used were free from contamination.
(§2) Cytotoxicity was measured colorimetrically using an Alamar blue method that was performed as previously described ([20], [21]). Cells were seeded in 96-well plates for all experiments (7 × 10^4 cells/mL for adherent cells or 3 × 10^5 cells/mL for suspension cells in 100 μL of medium) and incubated overnight at 37°C with 5% CO2 to allow for adherence. The complexes were dissolved in 0.5% dimethyl sulfoxide (DMSO, Vetec Química Fina) at eight different concentrations from 0.19 to 25 μg/mL and were added to each well and incubated for 72 h. The negative control was treated with the vehicle (0.5% DMSO) that was used to solubilize and dilute the complexes. […] Four (for cell lines) or 24 h (for PBMCs) before the end of incubation, 20 μL of a stock solution (0.312 mg/mL) of resazurin (Sigma-Aldrich Co.) was added to each well. Absorbance was measured at 570 and 600 nm using a SpectraMax 190 Microplate Reader (Molecular Devices, Sunnyvale, CA, USA).

[5] = test system: K-562 (human chronic myelogenous leukemia); assay: Alamar blue cytotoxicity assay, 72 h; type: cell-based; settings: for IC50: read-out: IC50 and 95% CI, K-562, 72 h
From the text: as §1, §2

[6] = test system: HepG2 (human hepatocellular carcinoma); assay: Alamar blue cytotoxicity assay, 72 h; type: cell-based
From the text: as §1, §2

[7] = for Differential leukocytes: Eosinophils / Differential leukocytes: Lymphocytes / Differential leukocytes: Monocytes / Differential leukocytes: Neutrophils / Erythrocytes / Total leukocytes: peripheral blood
Method: A human hepatocellular carcinoma xenograft model was generated by subcutaneously implanting HepG2 cells (1 × 10^7 cells per 500 μL) into the left front armpit of C.B-17 SCID mice. […] The treatments were initiated one day after the cancer cell injection. The animals were treated intraperitoneally (200 μL per animal) once a day for 21 consecutive days. On the 22nd day, the animals were anesthetized, and peripheral blood samples were collected from the brachial artery. Animals were euthanized by an anesthetic overdose, and tumors were excised and weighed.
To evaluate the toxicological aspects, mice were weighed at the beginning and at the end of the experiment. […] Hematological analysis was performed using an Advia 60 hematology system (Bayer, Leverkusen, Germany).

[8] = test system: BAD KO SV40 MEF (BAD gene knockout immortalized mouse embryonic fibroblasts); assay: Alamar blue cytotoxicity assay, 72 h; type: cell-based; settings: read-out: IC50 and 95% CI
[9] = test system: HepG2 cells; assay: Trypan blue exclusion assay; type: cell-based, human
Method: For all subsequent in vitro experiments, 2 mL of a suspension of HepG2 cells were seeded (7 × 10^4 cells/mL) and incubated in a 24-well plate overnight to allow the cells to adhere to the plate surface.
In the trypan blue exclusion assay, the number of viable cells and non-viable cells (stained with trypan blue) were counted. Briefly, 90 μL was removed from the cell suspension, and 10 μL of trypan blue (0.4%) was added. Cell counting was performed using a light microscope with a hemocytometer filled with an aliquot of the homogenized cell suspension.

Compound: Cn1ccnc1[S-].F[P-](F)(F)(F)(F)F.[Ru+2].c1ccc(-c2ccccn2)nc1.c1ccc(P(CCCCP(c2ccccc2)c2ccccc2)c2ccccc2)cc1 [Complex 1, [Ru(mmi)(bipy)(dppb)]PF6]
- IC50 [1]: 1100 nM
- mean tumor mass ([2]; 0.5 mg/kg/day i.p.): 0.4 ± 0.1 g
- mean tumor mass ([2]; 1 mg/kg/day i.p.): 0.3 ± 0.1 g
- tumor mass inhibition rates [2]: 31.5–45.4%
- reduction of the fluorescence intensity (ethidium bromide-ctDNA) vs negative control ([3]; 5 μM): 41.6%
- reduction of the fluorescence intensity (ethidium bromide-ctDNA) vs negative control ([3]; 10 μM): 34.0%
- reduction of the fluorescence intensity (ethidium bromide-ctDNA) vs negative control ([3]; 20 μM): 30.4%
- Selectivity index (SI = IC50 [noncancerous cells]/IC50 [cancer cells]) ([4]; MRC-5 vs B16-F10): 1.3
- Selectivity index (SI = IC50 [noncancerous cells]/IC50 [cancer cells]) ([4]; PBMCs vs B16-F10): 1.5
- Selectivity index (SI = IC50 [noncancerous cells]/IC50 [cancer cells]) ([5]; PBMCs vs K-562): 1.9
- IC50 [5]: 1400 nM
- IC50 ([6]; read-out: IC50 and 95% CI, HepG2, 72 h): 2600 nM
- Initial body weight ([7]; 0.5 mg/kg/day): 21.7 ± 0.2 g
- Final body weight ([7]; 0.5 mg/kg/day i.p., 21 days): 20.4 ± 0.3 g
- Survival ([7]; 0.5 mg/kg/day i.p., 21 days): 10/10
- Initial body weight ([7]; 1 mg/kg/day): 20.3 ± 0.2 g
- Final body weight ([7]; 1 mg/kg/day i.p., 21 days): 20.9 ± 0.4 g
- Survival ([7]; 1 mg/kg/day i.p., 21 days): 10/10
- Differential leukocytes: Eosinophils ([7]; 0.5 mg/kg/day, 21 days): 0.7%
- Differential leukocytes: Lymphocytes ([7]; 0.5 mg/kg/day, 21 days): 36.4%
- Differential leukocytes: Monocytes ([7]; 0.5 mg/kg/day, 21 days): 39.9%
- Differential leukocytes: Neutrophils ([7]; 0.5 mg/kg/day, 21 days): 23.8%
- Erythrocytes ([7]; 0.5 mg/kg/day, 21 days): 10.5 ± 0.6 10^6cells/μL
- Total leukocytes ([7]; 0.5 mg/kg/day, 21 days): 2.3 ± 0.4 10^3cells/μL
- Differential leukocytes: Eosinophils ([7]; 1 mg/kg/day, 21 days): 1.4%
- Differential leukocytes: Lymphocytes ([7]; 1 mg/kg/day, 21 days): 55.5%
- Differential leukocytes: Monocytes ([7]; 1 mg/kg/day, 21 days): 20.1%
- Differential leukocytes: Neutrophils ([7]; 1 mg/kg/day, 21 days): 24.4%
- Erythrocytes ([7]; 1 mg/kg/day, 21 days): 6.7 ± 0.9 10^6cells/μL
- Total leukocytes ([7]; 1 mg/kg/day, 21 days): 3.9 ± 1.9 10^3cells/μL
- IC50 [8]: 700 nM
- reduction of the number of viable cells vs negative control ([9]; 5 μM, 24 h): 40.1%
- reduction of the number of viable cells vs negative control ([9]; 5 μM, 48 h): 80.9%
- reduction of the number of viable cells vs negative control ([9]; 10 μM, 24 h): 78.9%
- reduction of the number of viable cells vs negative control ([9]; 10 μM, 48 h): 93.9%

Compound: F[P-](F)(F)(F)(F)F.[Ru+2].[S-]C1=NCCS1.c1ccc(-c2ccccn2)nc1.c1ccc(P(CCCCP(c2ccccc2)c2ccccc2)c2ccccc2)cc1 [Complex 2, [Ru(tzdt)(bipy)(dppb)]PF6]
- IC50 [1]: 2000 nM
- mean tumor mass ([2]; 0.5 mg/kg/day i.p.): 0.3 ± 0.1 g
- fibrosis in tumor histology ([2]; 1 mg/kg/day): most evident fibrosis
- mean tumor mass ([2]; 1 mg/kg/day i.p.): 0.2 ± 0.1 g
- tumor mass inhibition rates [2]: 46.9–67.7%
- reduction of the fluorescence intensity (ethidium bromide-ctDNA) vs negative control ([3]; 5 μM): 36.9%
- reduction of the fluorescence intensity (ethidium bromide-ctDNA) vs negative control ([3]; 10 μM): 42.9%
- reduction of the fluorescence intensity (ethidium bromide-ctDNA) vs negative control ([3]; 20 μM): 45.4%
- Selectivity index (SI = IC50 [noncancerous cells]/IC50 [cancer cells]) ([4]; MRC-5 vs B16-F10): 1.2
- Selectivity index (SI = IC50 [noncancerous cells]/IC50 [cancer cells]) ([4]; PBMCs vs B16-F10): 2.0
- Selectivity index (SI = IC50 [noncancerous cells]/IC50 [cancer cells]) ([5]; MRC-5 vs K-562): 1.8
- Selectivity index (SI = IC50 [noncancerous cells]/IC50 [cancer cells]) ([5]; PBMCs vs K-562): 2.9
- IC50 [5]: 900 nM
- Selectivity index (SI = IC50 [noncancerous cells]/IC50 [cancer cells]) ([6]; MRC-5 vs HepG2): 0.8
- Selectivity index (SI = IC50 [noncancerous cells]/IC50 [cancer cells]) ([6]; PBMCs vs HepG2): 1.4
- Initial body weight ([7]; 0.5 mg/kg/day): 20.4 ± 0.4 g
- Final body weight ([7]; 0.5 mg/kg/day i.p., 21 days): 20.8 ± 0.4 g
- Heart relative weight ([7]; 0.5 mg/kg/day i.p., 21 days): 0.6 ± 0.1 g/100 g body weight
- Kidney relative weight ([7]; 0.5 mg/kg/day i.p., 21 days): 1.5 ± 0.1 g/100 g body weight
- Liver relative weight ([7]; 0.5 mg/kg/day i.p., 21 days): 4.7 ± 0.2 g/100 g body weight
- Lung relative weight ([7]; 0.5 mg/kg/day i.p., 21 days): 0.8 ± 0.1 g/100 g body weight
- Survival ([7]; 0.5 mg/kg/day i.p., 21 days): 10/10
- Initial body weight ([7]; 1 mg/kg/day): 19.9 ± 0.5 g
- Final body weight ([7]; 1 mg/kg/day i.p., 21 days): 19.4 ± 0.5 g
- Heart relative weight ([7]; 1 mg/kg/day i.p., 21 days): 0.6 ± 0.1 g/100 g body weight
- Kidney relative weight ([7]; 1 mg/kg/day i.p., 21 days): 1.5 ± 0.1 g/100 g body weight
- Liver relative weight ([7]; 1 mg/kg/day i.p., 21 days): 4.6 ± 0.1 g/100 g body weight
- Lung relative weight ([7]; 1 mg/kg/day i.p., 21 days): 0.8 ± 0.1 g/100 g body weight
- Survival ([7]; 1 mg/kg/day i.p., 21 days): 10/10
- hepatotoxicity: focal areas of coagulation necrosis in the liver (histology) ([7]; 0.5 and 1 mg/kg/day i.p., 21 days): more evident; also recorded: evidence of hepatotoxicity
- Differential leukocytes: Eosinophils ([7]; 0.5 mg/kg/day, 21 days): 1.3%
- Differential leukocytes: Lymphocytes ([7]; 0.5 mg/kg/day, 21 days): 39.9%
- Differential leukocytes: Monocytes ([7]; 0.5 mg/kg/day, 21 days): 39.1%
- Differential leukocytes: Neutrophils ([7]; 0.5 mg/kg/day, 21 days): 21.1%
- Erythrocytes ([7]; 0.5 mg/kg/day, 21 days): 8.5 ± 1.0 10^6cells/μL
- Total leukocytes ([7]; 0.5 mg/kg/day, 21 days): 2.5 ± 0.4 10^3cells/μL
- Differential leukocytes: Eosinophils ([7]; 1 mg/kg/day, 21 days): 1.1%
- Differential leukocytes: Lymphocytes ([7]; 1 mg/kg/day, 21 days): 32.2%
- Differential leukocytes: Monocytes ([7]; 1 mg/kg/day, 21 days): 32.5%
- Differential leukocytes: Neutrophils ([7]; 1 mg/kg/day, 21 days): 34.4%
- Erythrocytes ([7]; 1 mg/kg/day, 21 days): 7.8 ± 0.8 10^6cells/μL
- Total leukocytes ([7]; 1 mg/kg/day, 21 days): 2.7 ± 0.4 10^3cells/μL
- IC50 [8]: 2900 nM
- reduction of the number of viable cells vs negative control ([9]; 2 μM, 24 h): 42.1%
- reduction of the number of viable cells vs negative control ([9]; 2 μM, 48 h): 67.3%
- reduction of the number of viable cells vs negative control ([9]; 4 μM, 24 h): 58.6%
- reduction of the number of viable cells vs negative control ([9]; 4 μM, 48 h): 93.1%
